{
  "source": "patent US20200383969A1",
  "about": "“RIMEGEPANT FOR CGRP RELATED DISORDERS” (Biohaven Pharmaceutical Holding Company Ltd., priority 2018, published 2020)",
  "assay_type_in_all_cases": "in vivo, human",
  "key": {"[1]": {"test": "Study 303 (BHV3000-303), Phase 3, rimegepant 75 mg ODT vs placebo, acute treatment of migraine", "text": "Clinical Trial—BHV3000-303: Phase 3: Double-Blind, Randomized, Placebo-Controlled, Safety and Efficacy Trial of BHV-3000 (Rimegepant) Orally Discintegrating Tablet (ODT) for the Acute Treatment of Migraine (ClinicalTrials.gov Identifier: NCT03461757) • Study Type: Interventional (Clinical Trial) • Actual Enrollment: 1812 participants • Allocation: Randomized • Intervention Model: Parallel Assignment • Masking: Triple (Participant, Care Provider, Investigator) • Primary Purpose: Treatment • Official Title: BHV3000-303: Phase 3, Double-Blind, Randomized, Placebo Controlled, Safety and Efficacy Trial of BHV-3000 (Rimegepant) Orally Disintegrating Tablet (ODT) for the Acute Treatment of Migraine • Actual Study Start Date: Feb. 27, 2018 • Actual Primary Completion Date: Oct. 8, 2018 • Actual Study Completion Date: Oct. 15, 2018 • 1. Pain freedom of rimegepant compared with placebo in the acute treatment of migraine will be measured using the number of evaluable subjects that report no pain at 2 hours post-dose. • Pain will be measured on a 4 point Likert scale (0=none, 1=mild, 2=moderate, 3=severe) • 2. Freedom from the most bothersome symptom (MBS) of rimegepant compared with placebo will be measured using the number of evaluable subjects that report the absence of their MBS at 2 hours post-dose. [Time Frame: Two Hours Post Dose] • The MBS (nausea, phonophobia or photophobia) will measured using a binary scale (0=absent, 1=present). • 1. […] [Time Frame: 2 Hours Post-Dose] • Pain Relief as measured by a 4 point numeric rating scale (None, Mild, Moderate, Severe) • 2. […] [ Time Frame: 2 hours-24 hours post-dose] • Sustained Pain Relief as measured by a 4 point numeric rating scale (None, Mild, Moderate, Severe) • 4. […] To measure rimegepant compared to placebo on the probability of requiring rescue medication will be assessed using the number of subjects that take rescue medication within […] administration of study medication (BHV3000 or placebo). […] Sustained ability to function at a normal level as measured by the Functional disability scale [Time Frame: 2 to 24 hours post dose] • Subjects self-report “normal” on the functional disability scale • 7. […] [Time Frame: 2 hours-48 hours post-dose] • Sustained Pain Relief as measured by a 4 point numeric rating scale (None, Mild, Moderate, Severe) • 8. […] Sustained ability to function at a normal level as measured by the Functional disability scale [Time Frame: 2 to 48 hours post dose] • Subjects self-report “normal” on the functional disability scale • 10. […] [Time Frame: 90 minutes post dose] • Pain Relief as measured by a 4 point numeric rating scale (None, Mild, Moderate, Severe) • 13. […] [Time Frame: 2 hours -24 hours post-dose] • Sustained Pain Freedom as measured by a 4 point numeric rating scale (None, Mild, Moderate, Severe) • 14. […]"}, "[2]": {"test": "Study 201 (BHV3000-201), open label long-term safety study, rimegepant 75 mg, interim analysis", "text": "Clinical Trial-BHV3000-201: Open Label Safety Study in Acute Treatment of Migraine (ClinicalTrials.gov Identifier: NCT 03266588) • Study Type: Interventional (Clinical Trial) • Estimated Enrollment: 2000 participants • Intervention Model: Single Group Assignment • Masking: None (Open Label) • Primary Purpose: Treatment • Official Title: A Multicenter, Open Label Long-Term Safety Study of BHV3000 in the Acute Treatment of Migraine • Actual Study Start Date: Aug. 30, 2017 • Estimated Primary Completion Date: July 2019 • Estimated Study Completion Date: July 2019 • 1. To assess the safety and tolerability of rimegepant (BHV-3000) by measuring the frequency and severity of adverse events and discontinuations due to adverse events [Time Frame: 52 weeks] Number of subjects with treatment-emergent adverse events as assessed through laboratory tests, ECGs, physical exam findings (safety and tolerability) • 1. ALT or […] with total bilirubin>2×ULN [Time Frame: 52 weeks] elevated liver function tests • 2. hepatic related adverse events and hepatic related adverse events that lead to discontinuation [Time Frame: 52 weeks] adverse events related to liver Results from the clinical trial described in Example 10 are summarized as follows. […] Patients were allowed to treat migraine attacks of all severities (mild to severe) up to once daily for a full year. The initial results for hepatic safety and tolerability of rimegepant 75 mg in study participants is based upon review of both adverse events and regularly scheduled liver function tests. Interim hepatic data were reviewed by an external and independent panel of liver experts. […] In the aggregate, it was noted that compared to migraine trials with drugs other than rimegepant, there was a very low incidence of overall elevations of liver function test abnormalities in rimegepant treated patients (1.0% incidence of serum ALT or AST>3× ULN). Subjects will continue to participate in Study 201 with additional data analyses to be submitted in the NDA and required 120-day safety updates. In addition to the interim safety analysis, data from subjects was assessed to determine reductions in the number of headache days per month."}, "[3]": {"test": "Pooled adverse event and liver function test data, Studies 301, 302 and 303"}, "[4]": {"details": "pooled Studies 301, 302, 303, n = 1,771"}},
  "data": [
    {"smiles": "N[C@@H]1c2cccnc2[C@H](OC(=O)N2CCC(n3c(=O)[nH]c4ncccc43)CC2)CC[C@H]1c1cccc(F)c1F", "note": "[Rimegepant, [(5S,6S,9R)-5-amino-6-(2,3-difluorophenyl)-6,7,8,9-tetrahydro-5H-cyclohepta[b]pyridin-9-yl] 4-(2-oxo-3H-imidazo[4,5-b]pyridin-1-yl)piperidine-1-carboxylate]", "values": [
      {"measurement": "LFTs>3×ULN, number of patients", "setting": "[1]; Study 303", "value": "one"},
      {"measurement": "Clinical benefit through 48 hours (pain relief, pain freedom, MBS, functional disability) vs placebo", "setting": "[1]; Study 303, single dose", "value": "Lasting clinical benefit"},
      {"measurement": "Safety and tolerability", "setting": "[1]; Study 303 vs Studies 301 and 302", "value": "consistent with the profile previously observed"},
      {"measurement": "Highest incidence of any single adverse event", "setting": "[1]; rimegepant group, Study 303 paragraph, sentence follows mention of pooled Table 9", "value": "≤ 1.6", "unit": "%"},
      {"measurement": ">=30.0% decrease in migraines (headache days) per month, percent of subjects", "setting": "[2]; Study 201, Overall, n 1731, treatment vs observation phase", "value": 30.2, "unit": "%"},
      {"measurement": "Onset of reductions in the mean number of headache days per month", "setting": "[2]; Study 201, continued in subsequent months", "value": "as early as the first month"},
      {"measurement": "Hy's Law cases", "setting": "[2]; Study 201 interim", "value": "no Hy's Law cases"},
      {"measurement": "Incidence of serum ALT or AST>3× ULN", "setting": "[2]; Study 201 interim", "value": 1.0, "unit": "%"},
      {"measurement": "Safety and tolerability of long-term dosing", "setting": "[2]; Study 201 interim analysis, 75 mg up to once daily", "value": "consistent with the profile observed in phase 1-3 studies to date"},
      {"measurement": "Liver safety signal", "setting": "[2]; Study 201 interim, including near-daily dosing (≥15 doses/month)", "value": "no liver safety signal detected"},
      {"measurement": "Liver cases assessed as probably related to study drug", "setting": "[2]; Study 201 interim, independent panel of liver experts", "value": "no liver cases"},
      {"measurement": "Bilirubin elevations > 2 × ULN", "setting": "[3]; across Studies 301, 302 and 303", "value": "no patients experienced elevations"},
      {"measurement": "ALT or AST >5 × ULN, patients", "setting": "[3]; pooled Studies 301, 302, 303, AST elevation, not drug-related per investigator", "value": "(0.06%)^2"},
      {"measurement": "ALT or AST >3 × ULN, patients", "setting": "[3]; [4]", "value": "(0.1%)"},
      {"measurement": "ALT or AST >ULN, patients", "setting": "[3]; [4]", "value": "(2.7%)"}
    ]}
  ]
}
